According to US6608004B2, “Substituted 2-aryl-1,2,4-triazine-3,5-di(thi)ones” (priority 1999, dated 2003):

Experiments:
[1] = system: crop plants, such as, for example, barley, wheat, rapeseed, soya and sugar beet; assay: Pre-Emergence Test (Example A), tolerance by crop plants; format: in vivo; conditions: pre-emergence; barley, wheat, rapeseed, soya and sugar beet; rated after three weeks
Source text: (§1) Solvent: 5 parts by weight of acetone
(§2) Emulsifier: 1 part by weight of alkylaryl polyglycol ether
(§3) Seeds of the test plants are sown in normal soil.

[2] = logP determination by HPLC, reversed-phase column (C 18), EEC Directive 79/831 Annex V.A8; conditions: pH 2
Source text: (a) Mobile phases for the determination in the acidic range: 0.1% aqueous phosphoric acid, acetonitrile; linear gradient from 10% acetonitrile to 90% acetonitrile—the corresponding measurement results are labelled in Table 1 with ^a).
(b) Mobile phases for the determination in the neutral range: 0.01 molar aqueous phosphate buffer solution, acetonitrile; linear gradient from 10% acetonitrile to 90% acetonitrile—the corresponding measurement results are labelled in Table 1 with ^b).

weeds [3] = assay: Post-Emergence Test (Example B), activity against weeds; format: in vivo; conditions: test plants of a height of 5-15 cm sprayed, rated after three weeks
Source text: as §1, §2
(§4) After three weeks, the degree of damage to the plants is rated in % damage in comparison to the development of the untreated control.

weeds [4] = assay: Pre-Emergence Test (Example A), activity against weeds; format: in vivo; conditions: soil sprayed about 24 hours after sowing, rated after three weeks
Source text: as §1, §2, §3
0%=no effect (like untreated control)

[5] = system: crop plants, such as, for example, barley and wheat; assay: Post-Emergence Test (Example B), tolerance by crop plants; conditions: post-emergence; barley and wheat; rated after three weeks
Source text: as §1, §2, §4

[6] = reversed-phase HPLC column (C 18)

C=CC(=O)N(c1cc(-n2ncc(=O)n(C)c2=O)c(F)cc1C#N)S(=O)(=O)CC [Example 2, 2-[5-(N-acryloyl-N-ethylsulphonylamino)-4-cyano-2-fluoro-phenyl]-4-methyl-1,2,4-triazine-3,5(2H,4H)-dione]
tolerance by crop plants [1]: essentially being tolerated well
chromatographic logP [2, 6]: 1.97
activity against weeds (degree of damage) (weeds [3]): very strong activity
activity against weeds (degree of damage) (weeds [4]): very strong activity
melting point: 118 °C
tolerance by crop plants [5]: essentially being tolerated well

CCS(=O)(=O)N(C(=O)Oc1ccccc1)c1cc(-n2ncc(=O)n(C)c2=O)c(F)cc1C#N [Example 1, 2-[5-(N-phenoxy-carbonyl-N-ethylsulphonylamino)-4-cyano-2-fluoro-phenyl]-4-methyl-1,2,4-triazine-3,5(2H,4H)-dione]
chromatographic logP [2]: 2.76
melting point: 181 °C

CCS(=O)(=O)Nc1cc(-n2ncc(=O)n(C)c2=O)c(F)cc1C#N [Example (II-1), 2-(2-fluoro-4-cyano-5-ethylsulphonylamino-phenyl)-4-methyl-1,2,4-triazine-3,5(2H,4H)-dione]
chromatographic logP [2, 6]: 1.66
melting point: 233 °C
